TGI and GI50 data for seven compounds are collected here from PubChem BioAssay (NCI).

Test systems include EKVX NSCLC; HOP-92 NSCLC; M14 melanoma; NCI-H226 lung; NCI-H460 lung; OVCAR-3 ovarian; SF-268 CNS; SK-MEL-5 melanoma; SN12C renal; T-47D breast.
What all share (test): inhibition of tumour cell growth, NCI panel, 48 h

The structures appear in SMILES notation.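 96-well plates; 48 h exposure; 5 concentrations. Endpoints by linear interpolation between flanking doses. Not reached: highest tested concentration assigned. GI50 is the concentration that inhibits growth by half. TGI denotes the concentration required for complete inhibition of growth.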

As for `CC(=O)[C@@]1(O)CC[C@H]2[C@@H]3C[C@H](C)C4=CC(=O)CC[C@]4(C)[C@H]3[C@@H](O)C[C@@]21C`, the TGI with EKVX NSCLC, with HOP-92 NSCLC, with M14 melanoma, with NCI-H226 lung, in the experiment with NCI-H460 lung and with OVCAR-3 ovarian was over 100 µM throughout. The TGI in the experiment with SF-268 CNS was over 100 µM; in the experiment with SK-MEL-5 melanoma, over 100000 nM; in the experiment with SN12C renal, over 100 µM; in the experiment with T-47D breast it was over 100 µM.

As to `COC(=O)c1c2c(c(C)[n+]([O-])c1C)C(=O)C=C(NCc1ccc(F)c(Cl)c1)C2=O`, the GI50 was 592 nM in the experiment with EKVX NSCLC; 1690 nM in the experiment on HOP-92 NSCLC; 117 nM with M14 melanoma; 1.26 µM with NCI-H226 lung; 264 nM in the experiment with NCI-H460 lung; 201 nM in the experiment on OVCAR-3 ovarian. Also, the GI50 in the experiment on SF-268 CNS is 1010 nM; in the experiment on SK-MEL-5 melanoma, 164 nM; in the experiment on SN12C renal, 310 nM; in the experiment on T-47D breast, 63.8 nM. For the same compound, the TGI in the experiment with EKVX NSCLC came to 2.27 µM; with HOP-92 NSCLC, 3.84 µM; in the experiment with M14 melanoma, 1.45 µM; in the experiment on NCI-H226 lung, 3.26 µM; with NCI-H460 lung, 1.4 µM; in the experiment with OVCAR-3 ovarian, 0.628 µM. The TGI with SF-268 CNS was determined as 2.81 µM; in the experiment with SK-MEL-5 melanoma, 311 nM; in the experiment with SN12C renal it was 1.28 µM; in the experiment with T-47D breast, 1.35 µM.

On to `COc1cc2cc(Oc3ccc(NC(=O)Nc4cccc(C(F)(F)F)c4)cc3)c(C)nc2cc1OC`, for which the GI50 is 1480 nM in the experiment with EKVX NSCLC; 1260 nM in the experiment with HOP-92 NSCLC; 1670 nM in the experiment on M14 melanoma; 1.8 µM with NCI-H226 lung; 1600 nM in the experiment on NCI-H460 lung; 2040 nM with OVCAR-3 ovarian. Moreover, the GI50 in the experiment with SF-268 CNS is 2570 nM; with SK-MEL-5 melanoma it was 1080 nM; in the experiment with SN12C renal it was 2060 nM; in the experiment with T-47D breast it was 1610 nM. Besides, the TGI was found to be 6.46 µM in the experiment with EKVX NSCLC; 3.96 µM in the experiment on HOP-92 NSCLC; 7.67 µM in the experiment on M14 melanoma; 5.6 µM with NCI-H226 lung; 6.02 µM in the experiment on NCI-H460 lung; 8.07 µM in the experiment with OVCAR-3 ovarian. The TGI stood at 15.5 µM in the experiment on SF-268 CNS, 2660 nM in the experiment with SK-MEL-5 melanoma, 16.3 µM in the experiment on SN12C renal and 6.68 µM in the experiment with T-47D breast.

Consider `COc1c(OC)c(OC)c2c(c1OC)c(=O)c1ccccc1n2C`, for which the TGI in the experiment on EKVX NSCLC, in the experiment with HOP-92 NSCLC, in the experiment with M14 melanoma, with NCI-H226 lung, in the experiment with OVCAR-3 ovarian and in the experiment on SF-268 CNS was over 100 µM in each case. The TGI with SK-MEL-5 melanoma is over 100000 nM; in the experiment with SN12C renal it was over 100 µM; with T-47D breast it was over 100 µM.

Regarding `O=c1c2ccccc2n(C[C@H]2CO2)c2ccccc12`, the GI50 is 2560 nM in the experiment on EKVX NSCLC; 2030 nM in the experiment with HOP-92 NSCLC; 1670 nM in the experiment with M14 melanoma; 1700 nM in the experiment on NCI-H460 lung; 2310 nM in the experiment on OVCAR-3 ovarian; 1620 nM with SF-268 CNS. Also, the GI50 is 1520 nM in the experiment with SK-MEL-5 melanoma, 1800 nM with SN12C renal and 2530 nM with T-47D breast. Further, the TGI in the experiment on EKVX NSCLC came to 6.44 µM; in the experiment with HOP-92 NSCLC, 5.27 µM; in the experiment on M14 melanoma, 3.9 µM; in the experiment with NCI-H460 lung it was 4.43 µM; with OVCAR-3 ovarian it was 7.19 µM; in the experiment on SF-268 CNS, 5.97 µM. Moreover, the TGI in the experiment on SK-MEL-5 melanoma worked out at 2900 nM; in the experiment on SN12C renal it was 7.05 µM; with T-47D breast, 8.38 µM.

As for `N#Cc1nc2c(S(=O)(=O)c3ccccc3)c(N)n(Cc3cccnc3)c2nc1C#N`, the GI50 in the experiment on EKVX NSCLC was 81900 nM; with HOP-92 NSCLC, 4710 nM; in the experiment with NCI-H226 lung it was 28.9 µM; in the experiment with NCI-H460 lung it was over 100000 nM; with OVCAR-3 ovarian it was 3480 nM; in the experiment with SF-268 CNS, 4260 nM. Moreover, the GI50 is over 100000 nM in the experiment on SK-MEL-5 melanoma, 26600 nM in the experiment with SN12C renal and 5800 nM in the experiment on T-47D breast. Further, the TGI in the experiment on EKVX NSCLC is over 100 µM; in the experiment on HOP-92 NSCLC it was 28.5 µM; in the experiment with NCI-H226 lung, over 100 µM; in the experiment with NCI-H460 lung it was over 100 µM; in the experiment with OVCAR-3 ovarian, over 100 µM; in the experiment with SF-268 CNS it was 22.7 µM. In addition, the TGI in the experiment on SK-MEL-5 melanoma was over 100000 nM; in the experiment on SN12C renal it was over 100 µM; in the experiment with T-47D breast, 52.1 µM.

Turning to `NC(N)=N/N=C\c1cccc(OCc2ccccc2)c1`, the GI50 in the experiment with EKVX NSCLC is 11000 nM; with HOP-92 NSCLC, 2050 nM; in the experiment with NCI-H226 lung it was 6.74 µM; with NCI-H460 lung it was 2550 nM; in the experiment on OVCAR-3 ovarian it was 6510 nM; with SF-268 CNS it was 10900 nM. In addition, the GI50 in the experiment on SK-MEL-5 melanoma is 1660 nM; with SN12C renal, 4330 nM; in the experiment on T-47D breast, 1550 nM. For the same compound, the TGI with EKVX NSCLC turned out to be 25.4 µM; with HOP-92 NSCLC, 7.47 µM; with NCI-H226 lung, 25.9 µM; in the experiment with NCI-H460 lung, 7.79 µM; in the experiment on OVCAR-3 ovarian it was 23 µM; in the experiment on SF-268 CNS, 25 µM. In addition, the TGI was 3120 nM in the experiment with SK-MEL-5 melanoma, 17.6 µM with SN12C renal and 3.99 µM with T-47D breast.
